This is an account of results in US20250257134A1, “THERAPEUTIC AND DIAGNOSTIC METHODS FOR BLADDER CANCER” (Genentech, Inc., priority 2022, published 2025).

In experiment [1] the test system is patients with metastatic urothelial carcinoma (mUC). The experiment can be described thus: Post hoc analysis of IMvigor130 biomarker-evaluable population: PD-L1 IHC assays (SP142, 22C3) and OS. It is filed as in vivo, human. The source says:
Clinically relevant biomarkers are needed to predict outcomes with immunotherapy in metastatic urothelial carcinoma (mUC). Different PD-L1 assays use various methods (e.g., scoring tumor and/or immune cells) to evaluate anti-PD-L1/PD-1 outcomes. […] Thus, it was hypothesized that the SP142 and 22C3 assays may be differentially associated with OS in IMvigor130 patients, which may be related to PD-L1 localization on specific immune cells such as dendritic cells (DCs). This Example describes a post hoc analysis that studied associations between two PD-L1 IHC assays (i.e., VENTANA SP142 and Dako 22C3) and OS in the biomarker-evaluable population of the IMvigor130 study.
The biomarker-evaluable population in this analysis consisted of patients with archival tumors in Arms B and C (Jun. 14, 2020 cutoff) (Galsky et al. Cancer Res. 81 (13_Supplement): CT042, 2021). Formalin-fixed paraffin-embedded (FFPE) tumor specimens from eligible IMvigor130 study patients were prospectively tested for PD-L1 IHC expression by a central laboratory prior to randomization (see, Example 1 for additional information). The IHC scores had three categories (IC0, IC1, IC2/3). The study enrolled all eligible patients whose tissue is evaluable for expression testing, regardless of PD-L1 expression status.
PD-L1 expression was evaluated by IHC (CellCarta) using the SP142 (Ventana) and 22C3 (Dako) assays in 322 patients treated with atezolizumab monotherapy (Arm B) and 305 patients treated with placebo+platinum-based chemotherapy (Arm C). Samples were also stained for IC subtypes. Assay cutoffs for the SP142 assay were IC ≥5% (IC2/3) and <5% (IC0/1). For the 22C3 assay, cutoffs were CPS ≥10 and <10.
A subset of tumor samples were also stained by IHC for the dendritic cell marker DC-LAMP (Clone 1010E1.01, Novus Biologicals). In silico deconvolution by xCell (Aran et al. Genome Biol. 18 (1): 220, 2017) was performed. Statistical analysis was performed to compare OS between subgroups using the stratified log-rank test.

In experiment [2] the test system is patients with untreated locally advanced or metastatic urothelial carcinoma. Description: Phase III IMvigor130 study: overall survival, atezolizumab monotherapy (Arm B) vs placebo + platinum-based chemotherapy (Arm C). It is filed as in vivo, human. Conditions: 1L mUC, May 31, 2019 cutoff. An excerpt:
This Example describes the IMvigor130 study, which is a Phase III, multicenter, randomized, placebo-controlled, partially blind study designed to evaluate the efficacy of atezolizumab given as monotherapy or in combination with platinum-based chemotherapy versus placebo in combination with platinum-based chemotherapy in patients with locally advanced or metastatic urothelial carcinoma who have not received prior systemic therapy.
The primary efficacy objective for this study is to evaluate the efficacy of atezolizumab plus platinum-based chemotherapy compared with placebo plus platinum-based chemotherapy on the basis of the following endpoints: • Co-primary endpoints of progression-free survival (PFS) and overall survival (OS) • PFS is defined as the time from randomization to the first documented disease progression as determined by the investigator with use of RECIST v1.1, or death due to any cause, whichever occurs first. • OS is defined as the time from randomization to death due to any cause. […]
Randomization was stratified by the following factors: • PD-L1 status (IC0 (<1%) vs. IC1 (≥1% and <5%) vs. IC2/3 (≥5%)). • Bajorin model risk factor score/liver metastasis (0 vs. 1 vs. 2 or patients with liver metastasis). • Investigator-determined chemotherapy (gemcitabine and carboplatin vs. gemcitabine and cisplatin). […]

[3] abbreviates: patients receiving atezolizumab monotherapy, biomarker-evaluable population, Jun. 14, 2020 cutoff.
[4] abbreviates: untreated locally advanced or metastatic UC.

As for “atezolizumab: Fc-engineered, humanized, non-glycosylated IgG1 kappa immunoglobulin that binds PD-L1; heavy chain SEQ ID NO: 1, light chain SEQ ID NO: 2”, in experiment [1] (setting [3]), the “OS HR by 22C3 CPS scoring (CPS ≥10 versus CPS <10)” value is 0.83 (0.63, 1.10) and the “OS HR by SP142 scoring (IC2/3 versus IC0/1)” value was 0.55 (0.39, 0.77). In experiment [1] (patients with mUC), the “OS in SP142 IC2/3 versus IC0/1 tumours” value is recorded as “longer OS”. For the same substance, in experiment [1] (setting [4]), the “OS by combined tumor status SP142 IC0/1 + 22C3 CPS ≥10” value is “shorter OS” and the “OS by combined tumor status SP142 IC2/3 + 22C3 CPS ≥10 (double positive)” value was “longer OS”. In experiment [2] (PD-L1 IC2/3 by SP142 IHC assay), the “overall survival (OS) HR, atezolizumab monotherapy (Arm B) versus placebo+platinum-based chemotherapy (Arm C)” value was found to be 0.68. For the same substance, the “overall survival (OS) HR, atezolizumab monotherapy (Arm B) versus placebo+platinum-based chemotherapy (Arm C)” value in experiment [2] (PD-L1 IC2/3 cisplatin ineligible) is on record as 0.53.
